SMILES strings stand for the structures.

This passage reports Activity results from ChEMBL document CHEMBL3727361, “Nitrogen bicyclic compounds as inhibitors for Scyl1 and Grk5” (2014).

In the assay the test system is Beta-TC6. As to the kind of experiment: Increase in insulin release in mouse BetaTC6 cells assessed as relative insulin release activity at 10 uM incubated for 2 to 4 hrs by FRET based HTRF assay relative to sunitinib. It is filed as functional. Background: TR-FRET usually uses a lanthanide donor and a delayed reading to cut background.
With `CN(C)c1cccc(-c2cn3c(NC(=O)c4ccccc4)cnc3cn2)c1`, the Activity turned out to be 50%.
Under `COc1ccccc1-c1ccc2ncc(-c3ccc(F)c(Cl)c3)n2n1` stands 20%.
Under `COc1ccc(-c2nnc3ccc(-c4ccc(S(C)(=O)=O)cc4)cn23)cc1OC` stands 10%; under `COc1cc(OC)cc(-c2cn3c(-c4cccs4)cnc3cn2)c1`, 20%.
Next, `CC(=O)c1cccc(-c2cnc3cnc(-c4cccnc4)cn23)c1`: 20%; `CN1CCN(C(=O)c2cccc(-c3cnc4cnc(-c5ccc6c(c5)OCO6)cn34)c2)CC1`: 20%.
Take `Brc1cnc2ccc(NCCCN3CCOCC3)nn12`: the Activity stood at 10%.
Next, `Cc1ccc(CNc2ccc3ncc(-c4ccc(C(=O)NCCN(C)C)cc4)n3n2)c(C)c1`: 20%; `COc1cc(-c2ccc3ncc(-c4cccs4)n3n2)ccc1O`: 20%.
Consider `COc1cccc(-c2ccc3ncc(-c4cccc(Cl)c4)n3n2)c1`, for which the Activity is 10%.
Take `c1ccc(-c2ccc3ncc(-c4ccc5c(c4)OCO5)n3n2)cc1`: the Activity was 20%.
Turning to `N#Cc1cccc(-c2nnc3ccc(-c4ccccn4)cn23)c1`, the Activity came to 20%.
Next, `O=C(NCCO)c1cccc(-c2cn3c(-c4cccs4)cnc3cn2)c1`: 20%; `COc1cc(OC)cc(-c2cn3c(-c4ccc5c(c4)OCO5)cnc3cn2)c1`: 50%.
`c1csc(-c2cnc3cnc(-c4ccncc4)cn23)c1`: the Activity came out at 20%.
Next, `FC(F)(F)c1cccc(C#Cc2ccc3nnc(-c4ccncc4)n3c2)c1`: 10%; `COc1cc(OC)cc(-c2cnc3cnc(-c4ccccc4N(C)C)cn23)c1`: 20%.
Next, `CNc1ccc2ncc(/C=C\CCCO)n2n1`: 10%; `COc1ccc(-c2cnc3cnc(-c4ccc(N)nc4)cn23)cc1`: 20%.
Turning to `CC(C)N1CCN(c2ccc(-c3cn4c(-c5ccc(C(=O)NC6CC6)cc5)cnc4cn3)cc2)CC1`, the Activity was 20%.
Next, `CS(=O)(=O)Nc1cccc(-c2cn3c(-c4ccc(Oc5ccccc5)cc4)cnc3cn2)c1`: 20%; `CC(=O)c1ccc(-c2cnc3cccnn23)cc1`: 10%.
Under `COc1ccccc1-c1cn2c(NC(=O)c3ccccc3)cnc2cn1` stands 20%; under `CC(=O)c1cccc(-c2cnc3ccc(-c4ccc(N)nc4)nn23)c1`, 20%.
Next, `CN1CCN(c2ccc(-c3cnc4cccnn34)cn2)CC1`: 10%; `Fc1cccc(-c2cnc3cnc(-c4ccc5c(c4)OCO5)cn23)c1`: 20%.
For the molecule `COc1ccc(-c2cnc3ccc(NCc4cccs4)nn23)c(OC)c1`, the Activity worked out at 20%.
Regarding `Fc1cccc(-c2cn3c(-c4ccccc4)cnc3cn2)c1`, the Activity was 20%.
`Fc1cccc(-c2cnc3cnc(-c4ccc(Cl)cc4)cn23)c1`: the Activity was 20%.
Next, `OCc1cccc(-c2cnc3cnc(-c4ccccc4)cn23)c1`: 20%.
As to `CC(C)(C)c1ccc(-c2cnc3cnc(-c4ccc(N)nc4)cn23)cc1`, the Activity is 10%.
As for `N#Cc1ccc(-c2ccc3nnc(-c4cccc(O)c4)n3c2)cc1`, the Activity turned out to be 50%.
`C(=C\c1cn2c(-c3cccs3)cnc2cn1)/c1ccccc1`: the Activity turned out to be 20%.
Under `CNC(=O)c1ccc(-c2ccc3nnc(-c4ccc(OCCCN(C)C)cc4)n3c2)cc1` stands 20%; under `Fc1ccc(-c2cn3c(-c4ccsc4)cnc3cn2)cc1Cl`, 20%; under `COc1ccc(-c2cnc3ccc(NCC4CC4)nn23)cn1`, 10%.
Consider `CCOc1cccc(-c2cn3c(-c4ccc(CCC(=O)O)cc4)cnc3cn2)c1`, for which the Activity result is “>=100%”.
Next, `CCOc1cccc(-c2cn3c(-c4ccc5c(c4)OCO5)cnc3cn2)c1`: 50%; `COc1cc(-c2cnc3cnc(-c4ccc(N)nc4)cn23)ccc1O`: 20%; `Cn1cncc1C#Cc1ccc2nnc(-c3ccc4c(c3)OCO4)n2c1`: 20%.
Under `Cn1cc(-c2cn3c(-c4ccc(O)cc4)cnc3cn2)cn1` stands 20%; under `Cc1ccccc1-c1cnc2cnc(-c3cccs3)cn12`, 10%.
Turning to `NC(=O)c1ccc(-c2ccc3ncc(-c4ccccc4)n3n2)cc1`, the Activity worked out at 20%.
Under `CN1CCN(C(=O)c2cccc(-c3cnc4cnc(-c5ccc(OC(F)(F)F)cc5)cn34)c2)CC1` stands 20%; under `CN(C)CCCNC(=O)c1ccc(-c2ccc3nnc(-c4cccc(C(F)(F)F)c4)n3c2)cc1`, 20%; under `Cc1cc(-c2cn3c(-c4ccncc4)cnc3cn2)cc(C)c1O`, 20%.
Next, `c1ccc(-c2nnc3ccc(-c4ccc5c(c4)OCO5)cn23)cc1`: 50%; `Oc1cccc(-c2cnc3cnc(-c4ccc(Cl)cc4)cn23)c1`: 20%.
Regarding `N#Cc1ccc(-c2cnc3cnc(-c4cccs4)cn23)cc1`, the Activity turned out to be 20%.
Turning to `COc1cc(-c2nnc3ccc(-c4cccc(F)c4)cn23)ccc1O`, the Activity was found to be 50%.
Consider `COc1ccccc1CC(=O)Nc1cnc2cnc(-c3cccc(Cl)c3Cl)cn12`, for which the Activity amounted to 20%.
Next, `Clc1cccc(-c2nnc3ccc(-c4ccc5c(c4)OCO5)cn23)c1`: 50%; `COc1cccc(CC(=O)Nc2cnc3cnc(-c4cnn(C)c4)cn23)c1`: 10%; `COc1ccc(-c2nnc3ccc(C#Cc4ccncc4)cn23)cc1OC`: 50%.
Under `COc1ccc(-c2ccc3ncc(-c4cccc(Cl)c4)n3n2)c(C)c1` stands 10%; under `Nc1ccc(-c2cn3c(NC(=O)c4ccccc4)cnc3cn2)cc1`, 20%; under `CCCC/C=C/c1cn2c(NC(=O)Cc3cccc(OC)c3)cnc2cn1`, 10%.
With `CN1CCN(C(=O)c2cccc(-c3ccc4nnc(-c5ccc6nccnc6c5)n4c3)c2)CC1`, the Activity is 20%.
On to `CN(C)c1ccc(-c2cnc3cnc(-c4ccc(NCCN5CCOCC5)nc4)cn23)cc1`, for which the Activity came to 50%.
Under `CC(=O)Nc1cccc(-c2cnc3ccc(NCc4ccc(F)cc4)nn23)c1` stands 10%.
Under `FC(F)(F)Oc1cccc(-c2cnc3cnc(-c4cccnc4)cn23)c1` stands 20%.
Under `Clc1ccc(-c2cnc3cnc(-c4ccncc4)cn23)cc1` stands 20%.
Turning to `CSc1ccc(-c2cn3c(-c4cccnc4)cnc3cn2)cc1`, the Activity came out at 20%.
Next, `Clc1ccc(-c2cnc3cnc(-c4ccsc4)cn23)cc1`: 50%.
Under `NC(=O)c1ccc(-c2ccc3ncc(-c4cccc(OC(F)(F)F)c4)n3n2)cc1` stands 20%; under `CN1CCN(C(=O)c2cccc(-c3cnc4cnc(-c5ccc6c(ccn6C)c5)cn34)c2)CC1`, 20%; under `COc1ccc(-c2cn3c(-c4ccc(OC)nc4)cnc3cn2)cn1`, 20%.
Under `CN(C)c1ccc(-c2cnc3cnc(-c4cccc(C(=O)NCCO)c4)cn23)cc1` stands 20%; under `CSc1ccccc1-c1cnc2cccnn12`, 50%.
